This data set concerns murine gut microbiome. Put plainly: Impact on the murine fecal microbiome (16S rRNA sequencing). Particulars: mouse, in vivo. The procedure:
Stool samples were collected and V4 region of the 16s rRNA gene was amplified using primers and sequenced (IonTorrent).
Fecal pellets were collected 3 days before and 3 days after antibiotic treatment and were stored at −80° C. in PBS. Sequencing of a stool pellet from each mouse from before and after treatment was performed by MR DNA (www.mrdnalab.com, Shallowater, TX, USA) on an Ion Torrent PGM. Using PCR primers, the V4 variable region of the 16SrRNA gene was amplified in a single-step 30 cycle PCR with the HotStarTaq Plus Master Mix Kit (Qiagen, USA). The following conditions were used: 94° C. for 3 minutes and 30 cycles of 94° C. for 30 seconds, 53° C. for 40 seconds and 72° C. for 1 minute, then a final elongation step for 5 minutes at 72° C. […] Barcodes and primers and then sequences<150 bp were removed. Further, sequences with homopolymer runs exceeding 6 bp and sequences with ambiguous calls were removed. The sequences were then denoised, OTUs were generated, and chimeras were removed; OTUs were clustered at 3% divergence. Taxonomic classification was performed using BLASTn against a database derived from RDPII available at www.rdp.cme.msu.edu) and NCBI (www.ncbi.nlm.nih.gov). The change in relative abundance of the most abundant genera from before to after treatment of each individual mouse was reported. Further, raw sequences were processed in Qiita (Gonzalez, A., et al. (2018). Nat Methods 15, 796-798; the contents of which are herein incorporated by reference in its entirety) and were demultiplexed, trimmed to 100 bp, and closed reference OTU picking was performed against the Greengenes database at 97% similarity (McDonald, D. et al. (2012). ISME J 6, 610-618; the contents of which are herein incorporated by reference in its entirety). The alpha diversity based on the Simpson index was calculated in Qiita. The change in the Simpson index was calculated for the fecal microbiome of each mouse from before to after treatment. Statistical significance was calculated using a one-way ANOVA with Tukey's multiple comparisons test (p<0.05).

Molecules are shown by their SMILES.

Regarding `CC1(C)S[C@@H]2[C@H](NC(=O)[C@H](N)c3ccccc3)C(=O)N2[C@H]1C(=O)O` [Ampicillin, reference compound], the “Changes in the composition of the microbiota” value is given as “significant changes”.

For the origin of these results see patent publication US20240082282A1 (priority 2020, published 2024).
